Source: ChEMBL document CHEMBL1149865, “Pyridinium alkaloid-coupled secoiridoids from the flower buds of Lonicera japonica” (2008)

Experiment: Antiinflammatory activity in rat polymorphonuclear leukocytes assessed as inhibition of platelet activating factor-induced release of glucuronidase at 10 uM after 15 mins
Format: functional
Conditions: 0.25 h

Structure (SMILES): C=C[C@H]1[C@H](O[C@@H]2O[C@H](CO)[C@@H](O)[C@H](O)[C@H]2O)OC=C(C(=O)O)[C@H]1/C=C/c1cc(C(=O)[O-])c[n+](CCO)c1 [LONIJAPOSIDE C]
- inhibition at 10 µM: 69.5%

Structure (SMILES): C=C[C@H]1[C@H](O[C@@H]2O[C@H](CO)[C@@H](O)[C@H](O)[C@H]2O)OC=C(C(=O)OC)[C@H]1/C=C/c1cc(C(=O)[O-])c[n+](CCCC(=O)O)c1 [LONIJAPOSIDE A]
- inhibition at 10 µM: 11%

Structure (SMILES): C=C[C@H]1[C@H](O[C@@H]2O[C@H](CO)[C@@H](O)[C@H](O)[C@H]2O)OC=C(C(=O)OC)[C@H]1/C=C/c1cc(C(=O)[O-])c[n+](CCO)c1 [LONIJAPOSIDE B]
- inhibition at 10 µM: 35.8%
